# Reference: US20240301409A1, “Chemically Modified Small Activating RNA” (RACTIGEN THERAPEUTICS, priority 2021, published 2024)
# Test system: J82 cells
# Assay: Cellular proliferation assay (CCK8) in J82 cells, combined with Mitomycin C or valrubicin
# Assay type: cell-based, human
# Description: J82 cells were transfected with RAG1-40-31 at concentrations of 0.1, 0.5, 1, 5, 10, 25 and 50 nM for 24 hours, and then Mitomycin C at concentrations of 1, 10, 100, 1000 and 10000 nM was added. The combined treatment was carried out with concentrations in pairs. After treatment, the proliferation of cells was detected using CCK8 kit. FIGS. 14A-14B show the relative proliferation proportion of J82 cells after the combined treatment with chemically modified saRNA RAG1-40-31 and valrubicin. […] Control and DMSO are the blank transfection control and the solvent for dilution control, respectively.
# J82 cells were transfected with RAG1-40-31 at concentrations of 0.1, 0.5, 1, 5, 10, 25 and 50 nM for 24 hours, and then valrubicin at concentrations of 1, 10, 100, 1000 and 10000 nM was added. The combined treatment was carried out with concentrations in pairs. After treatment, the cellular proliferation was detected by CCK8 kit. FIGS. 15A-15B show the relative proliferation proportion of T24 cells after the combined treatment with chemically modified saRNA RAG1-40-31 and Mitomycin C. […] Control and DMSO are the blank transfection control and the solvent for dilution control, respectively.
# Human bladder cancer cells Ku-7-LG (ATCC), J82 (ATCC) and T24 (ATCC) were cultured in McCoy medium (Gibco) comprising 10% calf serum (Sigma-Aldrich) and 1% penicillin/Streptomycin (Gibco). Cells were cultured at 37° C. under 5% CO2. Ku-7-LG, J82 and T24 cells were plated into 12-well plates at 10×10^4 cells per well, transfected with the small RNA at a concentration of 10 nM (unless otherwise specified) for three days, using RNAiMax (Invitrogen, Carlsbad, CA) according to the manufacturer's instructions. Two replicate wells were set for each treatment.
# Cells were plated in a 96-well plate at 2˜4×10^3 cells/well, cultured overnight, and transfected with the oligonucleotide duplexes. Three days after transfection, CCK8 (Dojindo) was used to detect cellular proliferation following manufacturer's instructions. The experimental steps are briefly described as follows: 10 μL of CCK8 solution was added to each well, incubated at 37° C. for 1 hour, and then the absorbance at 450 nm was measured using a microplate reader.
# In this example, chemically modified saRNA RAG1-40-31 was used in combination with clinical chemical agents to evaluate the suppressing effect of the combined agents on cancer cells.
substance,measurement,setting,value
"RAG1-40-31: saRNA duplex: sense fCfCAACUCAUUCUCCAAG*U*C (SEQ ID NO 16); antisense U*A*fCfUfUGGAGAAfUGAGfUfUGG*fC*A (SEQ ID NO 12) (sense CCAACUCAUUCUCCAAGUC; antisense UACUUGGAGAAUGAGUUGGCA; 2'-F and phosphorothioate modifications; modified_base (1)..(2) (1,2)=2′-fluoro; modified_base (17)..(19) (17,18,19)=phosphorothioate (PS) backbone modification; modified_base (2)..(21) (2,3,19,20,21)=phosphorothioate (PS) backbone modification; modified_base (3)..(20) (3,4,5,12,16,17,20)=2′-fluoro)",Relative proliferation proportion of J82 cells,RAG1-40-31 0.1 nM + MMC 10000 nM,1.5%
same,Relative proliferation proportion of J82 cells,RAG1-40-31 0.1 nM + valrubicin 1 nM,71.0%
same,Relative proliferation proportion of J82 cells,RAG1-40-31 0.1 nM + valrubicin 10 nM,58.2%
same,Relative proliferation proportion of J82 cells,RAG1-40-31 0.1 nM + valrubicin 100 nM,73.2%
same,Relative proliferation proportion of J82 cells,RAG1-40-31 0.1 nM + valrubicin 1000 nM,26.9%
same,Relative proliferation proportion of J82 cells,RAG1-40-31 0.1 nM + valrubicin 10000 nM,9.9%
same,Relative proliferation proportion of J82 cells,"RAG1-40-31 0.1 nM, Control (no MMC)",97.9%
same,Relative proliferation proportion of J82 cells,"RAG1-40-31 0.1 nM, Control (no valrubicin)",85.1%
same,Relative proliferation proportion of J82 cells,RAG1-40-31 0.5 nM + MMC 1 nM,70.1%
same,Relative proliferation proportion of J82 cells,RAG1-40-31 0.5 nM + MMC 10 nM,69.3%
same,Relative proliferation proportion of J82 cells,RAG1-40-31 0.5 nM + MMC 100 nM,34.9%
same,Relative proliferation proportion of J82 cells,RAG1-40-31 0.5 nM + MMC 1000 nM,10.8%
same,Relative proliferation proportion of J82 cells,RAG1-40-31 0.5 nM + MMC 10000 nM,0.9%
same,Relative proliferation proportion of J82 cells,RAG1-40-31 0.5 nM + valrubicin 1 nM,62.4%
same,Relative proliferation proportion of J82 cells,RAG1-40-31 0.5 nM + valrubicin 10 nM,54.1%
same,Relative proliferation proportion of J82 cells,RAG1-40-31 0.5 nM + valrubicin 100 nM,72.8%
same,Relative proliferation proportion of J82 cells,RAG1-40-31 0.5 nM + valrubicin 1000 nM,24.4%
same,Relative proliferation proportion of J82 cells,RAG1-40-31 0.5 nM + valrubicin 10000 nM,7.7%
same,Relative proliferation proportion of J82 cells,"RAG1-40-31 0.5 nM, Control (no MMC)",89.9%
same,Relative proliferation proportion of J82 cells,"RAG1-40-31 0.5 nM, Control (no valrubicin)",77.8%
same,Relative proliferation proportion of J82 cells,RAG1-40-31 1 nM + MMC 1 nM,55.8%
same,Relative proliferation proportion of J82 cells,RAG1-40-31 1 nM + MMC 10 nM,57.2%
same,Relative proliferation proportion of J82 cells,RAG1-40-31 1 nM + MMC 100 nM,30.1%
same,Relative proliferation proportion of J82 cells,RAG1-40-31 1 nM + MMC 1000 nM,9.3%
same,Relative proliferation proportion of J82 cells,RAG1-40-31 1 nM + MMC 10000 nM,1.4%
same,Relative proliferation proportion of J82 cells,RAG1-40-31 1 nM + valrubicin 1 nM,59.8%
same,Relative proliferation proportion of J82 cells,RAG1-40-31 1 nM + valrubicin 10 nM,51.6%
same,Relative proliferation proportion of J82 cells,RAG1-40-31 1 nM + valrubicin 100 nM,54.4%
same,Relative proliferation proportion of J82 cells,RAG1-40-31 1 nM + valrubicin 1000 nM,22.7%
same,Relative proliferation proportion of J82 cells,RAG1-40-31 1 nM + valrubicin 10000 nM,7.5%
same,Relative proliferation proportion of J82 cells,"RAG1-40-31 1 nM, Control (no MMC)",79.8%
same,Relative proliferation proportion of J82 cells,"RAG1-40-31 1 nM, Control (no valrubicin)",73.9%
same,Relative proliferation proportion of J82 cells,RAG1-40-31 5 nM + MMC 1 nM,42.8%
same,Relative proliferation proportion of J82 cells,RAG1-40-31 5 nM + MMC 10 nM,40.8%
same,Relative proliferation proportion of J82 cells,RAG1-40-31 5 nM + MMC 100 nM,26.2%
same,Relative proliferation proportion of J82 cells,RAG1-40-31 5 nM + MMC 1000 nM,7.2%
same,Relative proliferation proportion of J82 cells,RAG1-40-31 5 nM + MMC 10000 nM,1.2%
same,Relative proliferation proportion of J82 cells,RAG1-40-31 5 nM + valrubicin 1 nM,37.9%
same,Relative proliferation proportion of J82 cells,RAG1-40-31 5 nM + valrubicin 10 nM,46.6%
same,Relative proliferation proportion of J82 cells,RAG1-40-31 5 nM + valrubicin 100 nM,50.9%
same,Relative proliferation proportion of J82 cells,RAG1-40-31 5 nM + valrubicin 1000 nM,22.6%
same,Relative proliferation proportion of J82 cells,RAG1-40-31 5 nM + valrubicin 10000 nM,5.5%
same,Relative proliferation proportion of J82 cells,"RAG1-40-31 5 nM, Control (no MMC)",59.3%
same,Relative proliferation proportion of J82 cells,"RAG1-40-31 5 nM, Control (no valrubicin)",58.4%
same,Relative proliferation proportion of J82 cells,RAG1-40-31 10 nM + MMC 1 nM,37.0%
same,Relative proliferation proportion of J82 cells,RAG1-40-31 10 nM + MMC 10 nM,37.7%
same,Relative proliferation proportion of J82 cells,RAG1-40-31 10 nM + MMC 100 nM,22.2%
same,Relative proliferation proportion of J82 cells,RAG1-40-31 10 nM + MMC 1000 nM,6.9%
same,Relative proliferation proportion of J82 cells,RAG1-40-31 10 nM + MMC 10000 nM,1.0%
same,Relative proliferation proportion of J82 cells,RAG1-40-31 10 nM + valrubicin 1 nM,33.1%
same,Relative proliferation proportion of J82 cells,RAG1-40-31 10 nM + valrubicin 10 nM,37.1%
same,Relative proliferation proportion of J82 cells,RAG1-40-31 10 nM + valrubicin 100 nM,40.4%
same,Relative proliferation proportion of J82 cells,RAG1-40-31 10 nM + valrubicin 1000 nM,20.3%
same,Relative proliferation proportion of J82 cells,RAG1-40-31 10 nM + valrubicin 10000 nM,4.3%
same,Relative proliferation proportion of J82 cells,"RAG1-40-31 10 nM, Control (no MMC)",48.9%
same,Relative proliferation proportion of J82 cells,"RAG1-40-31 10 nM, Control (no valrubicin)",50.6%
same,Relative proliferation proportion of J82 cells,RAG1-40-31 25 nM + MMC 1 nM,20.8%
same,Relative proliferation proportion of J82 cells,RAG1-40-31 25 nM + MMC 10 nM,25.7%
same,Relative proliferation proportion of J82 cells,RAG1-40-31 25 nM + MMC 100 nM,17.2%
same,Relative proliferation proportion of J82 cells,RAG1-40-31 25 nM + MMC 1000 nM,5.0%
same,Relative proliferation proportion of J82 cells,RAG1-40-31 25 nM + MMC 10000 nM,0.4%
same,Relative proliferation proportion of J82 cells,RAG1-40-31 25 nM + valrubicin 1 nM,26.1%
same,Relative proliferation proportion of J82 cells,RAG1-40-31 25 nM + valrubicin 10 nM,23.9%
same,Relative proliferation proportion of J82 cells,RAG1-40-31 25 nM + valrubicin 100 nM,26.3%
same,Relative proliferation proportion of J82 cells,RAG1-40-31 25 nM + valrubicin 1000 nM,13.3%
same,Relative proliferation proportion of J82 cells,RAG1-40-31 25 nM + valrubicin 10000 nM,2.7%
same,Relative proliferation proportion of J82 cells,"RAG1-40-31 25 nM, Control (no MMC)",38.4%
same,Relative proliferation proportion of J82 cells,"RAG1-40-31 25 nM, Control (no valrubicin)",45.6%
same,Relative proliferation proportion of J82 cells,RAG1-40-31 50 nM + MMC 1 nM,25.9%
same,Relative proliferation proportion of J82 cells,RAG1-40-31 50 nM + MMC 10 nM,25.8%
same,Relative proliferation proportion of J82 cells,RAG1-40-31 50 nM + MMC 100 nM,13.9%
same,Relative proliferation proportion of J82 cells,RAG1-40-31 50 nM + MMC 1000 nM,3.4%
same,Relative proliferation proportion of J82 cells,RAG1-40-31 50 nM + MMC 10000 nM,0.6%
same,Relative proliferation proportion of J82 cells,RAG1-40-31 50 nM + valrubicin 1 nM,19.7%
same,Relative proliferation proportion of J82 cells,RAG1-40-31 50 nM + valrubicin 10 nM,21.4%
same,Relative proliferation proportion of J82 cells,RAG1-40-31 50 nM + valrubicin 100 nM,23.9%
same,Relative proliferation proportion of J82 cells,RAG1-40-31 50 nM + valrubicin 1000 nM,14.8%
same,Relative proliferation proportion of J82 cells,RAG1-40-31 50 nM + valrubicin 10000 nM,3.2%
same,Relative proliferation proportion of J82 cells,"RAG1-40-31 50 nM, Control (no MMC)",34.8%
same,Relative proliferation proportion of J82 cells,"RAG1-40-31 50 nM, Control (no valrubicin)",33.5%
